{"source": "patent US20150157672A1", "about": "“KITS AND METHODS FOR SUSTAINED WEIGHT LOSS” (PHYTOLOGY LABS, INC., priority 2013, published 2015)", "key": {"[1]": {"test": "Systematic review and meta-analysis of randomized clinical trials of Garcinia extract (HCA) with dose-response curve", "type": "in vivo, human", "settings": "curve ΔWt=ΔWtmax(1−e^−b*dosage)", "description": "A systematic review and meta-analysis to examine the efficacy of Garcinia extract, hydroxycitric acid (HCA) as a weight reduction agent, using data from randomized clinical trials, found a small, statistically significant difference in weight loss of -0.9 kg between HCA and placebo. A nonlinear, significant (P<0.05) correlation between the dosage of HCA and body weight loss seems to exist. This relationship follows a curve ΔWt=Δ[…]) which is consistent with a first order ligand binding kinetics. […] However, HCA quickly approaches its asymptotic maximum by 2800 mg/day."}, "[2]": {"test": "Kinetic decay model of weight loss fitted to published clinical data (efficacy benchmarks)", "type": "in vivo, human", "settings": "for ΔWt. LossMAX: model parameter; for Decay Coeff. (−b): model Weight (t)=Weight Plateau+ΔWt. LossMAX e^-bt, across studies and doses", "description": "In order to better understand the underlying dynamics of weight loss agents over time, several weight loss agents were selected to study and attempt to model. These included a wide range of weight loss agents including dietary supplements (C. sinensis & alginate), OTC drugs (orlistat), and Rx drugs (sibutramine, Qysmia®). Over time, more may be added to the database to test hypotheses and to improve the modeling of the underlying weight loss dynamics.\nAll agents followed the same basic kinetic model: Weight (t)=Weight Plateau+ΔWt. LossMAX e-^bt, where Weight Plateau=Starting Weight−ΔWt. LossMAX. Where t=time, b=decay coefficient, and ΔWt. LossMAX=maximum amount of weight lost, which appears to be a function of weight loss agent, dosage, and patient population. […] It does appear to vary by weight loss agent. The variation within a weight loss agent appears to be fairly low. It is critical to note that these are only the initial observations based upon estimating the results using published data. The raw data, more observations, and a more sophisticated statistical analysis are needed in order to make more definitive claims. The fact that all weight loss agents seem to follow the same relationship supports the adaptation hypothesis. […] All of the observed data fit the model well. The decay coefficient was estimated to be 0.1±0.02, and all the studies except Rossner fell within one standard deviation of this mean. The decay coefficient for the Rossner study was 0.05, which is slightly more than two standard deviations from the mean. However, it is important to put this in context. The maximum difference between the model using 0.05 as the decay coefficient and 0.10 is about 2.0 kg, which falls within the observation error range. It is unclear whether this difference was due to random chance, to variation caused by the inherent error arising from estimating the data from the published graphs, or to something more fundamental. […] LossMAX for diabetic vs non-diabetic patients on orlistat. […] However, given the number of studies analyzed, it is premature to draw any definitive conclusions beyond that these are interesting data points from which a hypothesis can be generated. All of the observed data for Qysmia fit the model well, see FIG. 8. The decay coefficient was estimated to be 0.08±0.01. The decay coefficient was very consistent across all the studies and doses. Given these were registration studies, the larger sample sizes may have allowed for better resolution. The observed data for sibutramine also fit the model well. Since there were more studies, it was impractical to show them all in a graph. The decay coefficient was estimated to be 0.14±0.04. Sibutramine offered the widest number of conditions studied, and as expected, there was more variability in the decay coefficient."}, "[3]": {"test": "Estimated effect of first, second and third treatment phase (Tables 1-3)", "type": "in vivo, human", "description": "In some embodiments the first treatment phase may comprise administering at least one weight loss agent. In some embodiments, the at least one weight loss agent is a protein kinase A modulator, a neurotransmitter modulator or a combination thereof. In some embodiments, the weight loss agents administered during this treatment phase are selected from Camellia sinensis, caffeine, Capsicum sp., 5-hydroxytryptophan, and any combination thereof. In yet other embodiments the first treatment phase comprises administering Camellia sinensis, caffeine, Capsicum sp., 5-hydroxytryptophan, or any combination thereof. […] In some embodiments, the second treatment phase comprises administering at least one weight loss agent. In some embodiments, the at least one weight loss agent is a macro nutrient absorption modulator, a neurotransmitter modulator or a combination thereof. In some embodiments, the at least one weight loss agent is selected from Phaseolus vulgaris, […] gabonensis, Rhodiola rosea, and any combination thereof. In yet other embodiments the second treatment phase comprises administering Phaseolus vulgaris, […] gabonensis, Rhodiola rosea, or any combination thereof. […] In some embodiments, the third treatment phase comprises administering at least one weight loss agent. In some embodiments, the at least one weight loss agent is a Protein Kinase A modulator, Adenosine Mono-Phosphate activated Kinase (AMPk) modulator, or a combination thereof. In some embodiments, the at least one weight loss agent is selected from Coffea canefora, Coleus forskholii, yohimbine, caffeine, and any combination thereof. In yet other embodiments, the third treatment phase comprises administering Coffea canefora, Coleus forskholii, yohimbine, caffeine, or any combination thereof."}, "[4]": {"settings": "when ingested; cited from earlier work"}, "[5]": {"settings": "cited from earlier work; for thermogenic response: in man"}, "[6]": {"test": "Rough point estimate of effect size by weight loss agent from published studies (Table 7)", "type": "in vivo, human", "method": "A rough point estimate of the effect size by weight loss agent was developed using data from published studies.\nThe ΔWt. LossMAX for Garcinia sp. from 1.0 kg to 3.0 kg assumes the dose response curve model is valid, which has not been proven. The dosage of Phaseolus vulgaris is measured in α-amylase blocking units. Coffea canefora is administered as Syetol®, a commercial preparation most commonly used in the studies (400 mg). Crocus sativus dosages for depression are much lower 30 mg and have been shown for extracts of both stigma & leaf."}, "[7]": {"settings": "FIG. 2; cited from earlier work"}, "[8]": {"system": "α1-receptor", "settings": "functions as an antagonist; cited from earlier work"}, "[9]": {"system": "α2-adrenergic receptor", "settings": "functions as an antagonist; cited from earlier work"}}, "note": "Like-named read-outs stand apart in the source and are kept apart here.", "data": [{"smiles": "O=C(O)CC(O)(C(=O)O)C(O)C(=O)O", "note": "(centres unmarked) [HCA, hydroxycitric acid]", "values": [{"measurement": "ΔWtmax", "setting": "[1]", "result": "about 3.5 kg"}]}, {"smiles": "CC(C)CC(N(C)C)C1(c2ccc(Cl)cc2)CCC1", "note": "(centres unmarked) [Sibutramine, sibutramine]", "values": [{"measurement": "ΔWt. LossMAX", "setting": "[2]; Dosage 1 mg", "result": 3.7, "unit": "kg"}, {"measurement": "ΔWt. LossMAX", "setting": "[2]; Dosage 5 mg", "result": 4.5, "unit": "kg"}, {"measurement": "ΔWt. LossMAX", "setting": "[2]; Dosage 10 mg", "result": 8.4, "unit": "kg"}, {"measurement": "ΔWt. LossMAX", "setting": "[2]; Dosage 15 mg", "result": 7.3, "unit": "kg"}, {"measurement": "ΔWt. LossMAX", "setting": "[2]; Dosage 20 mg", "result": 8.5, "unit": "kg"}, {"measurement": "ΔWt. LossMAX", "setting": "[2]; Dosage 30 mg", "result": 9.1, "unit": "kg"}, {"measurement": "Decay Coeff. (−b)", "setting": "[2]", "result": "0.14 ± 0.04"}, {"measurement": "Decay Coeff. (−b)", "setting": "[2]; listed as sibutramine", "result": "0.14±0.04"}]}, {"smiles": "N[C@@H](Cc1c[nH]c2ccc(O)cc12)C(=O)O", "note": "[5-hydroxytryptophan]", "values": [{"measurement": "Estimated kcal/day reduction", "setting": "[3]; first treatment phase", "result": 240, "unit": "kcal/day"}, {"measurement": "Estimated ΔWt. LossMAX", "setting": "[3]; first treatment phase", "result": "1.5 to 2.5", "unit": "kg"}, {"measurement": "adverse effects", "setting": "[4]", "result": "nausea and diarrhea"}, {"measurement": "reduction in energy intake", "setting": "[5]; spontaneous reduction of calorie consumption", "result": "about 243 Kcal/day"}, {"measurement": "Kcal/d", "setting": "[6]; Dosage 50-900 mg oral", "result": 400, "unit": "kcal/day"}, {"measurement": "Kg./wk", "setting": "[6]; Dosage 50-900 mg oral", "result": 0.2, "unit": "Kg./wk"}, {"measurement": "ΔWt. LossMAX", "setting": "[6]; Dosage 50-900 mg oral", "result": "1.5 to 2.5", "unit": "kg"}]}, {"smiles": "Cn1c(=O)c2c(ncn2C)n(C)c1=O", "note": "[caffeine]", "values": [{"measurement": "Estimated kcal/day reduction", "setting": "[3]; first treatment phase", "result": 60, "unit": "kcal/day"}, {"measurement": "Estimated ΔWt. LossMAX", "setting": "[3]; first treatment phase", "result": 0.5, "unit": "kg"}, {"measurement": "Estimated kg/wk reduction", "setting": "[3]; third treatment phase", "result": 0.05, "unit": "kg/wk"}, {"measurement": "Estimated ΔWt. LossMAX", "setting": "[3]; third treatment phase", "result": 0.5, "unit": "kg"}, {"measurement": "raise of energy expenditure", "setting": "[5]; 600 mg/day dose", "result": 63, "unit": "kcal/day"}, {"measurement": "thermogenic response", "setting": "[5]; dose 100 mg", "result": "4-5%"}, {"measurement": "thermogenic response", "setting": "[5]; dose 200-250 mg", "result": "10-12%"}, {"measurement": "thermogenic response", "setting": "[5]; dose 400-450 mg", "result": 16, "unit": "%"}, {"measurement": "minimum (or near minimum) dose with demonstrable stimulatory effect on resting metabolic rate (RMR)", "setting": "[5]; in vivo", "result": 100, "unit": "mg"}, {"measurement": "Kcal/d", "setting": "[6]; Dosage 500-700 mg/day", "result": "50 to 75", "unit": "kcal/day"}]}, {"smiles": "CC(C)(N)Cc1ccccc1", "note": "[Phentermine]", "values": [{"measurement": "time to reduction or complete cessation of weight loss", "setting": "[7]", "result": "about 4 weeks"}]}, {"smiles": "CCCCCCCCCCC[C@@H](C[C@@H]1OC(=O)[C@H]1CCCCCC)OC(=O)[C@H](CC(C)C)NC=O", "note": "[Orlistat, orlistat]", "values": [{"measurement": "ΔWt. LossMAX", "setting": "[2]; Dosage 120 mg (diabetics)", "result": 4.3, "unit": "kg"}, {"measurement": "ΔWt. LossMAX", "setting": "[2]; Dosage 120 mg", "result": 7.1, "unit": "kg"}, {"measurement": "decay coefficient", "setting": "[2]; Rossner study", "result": 0.05}, {"measurement": "Decay Coeff. (−b)", "setting": "[2]", "result": "0.11 ± 0.02"}, {"measurement": "Decay Coeff. (−b)", "setting": "[2]; listed as orlistat", "result": "0.1±0.02"}]}, {"smiles": "COC(=O)[C@@H]1[C@H]2C[C@H]3c4[nH]c5ccccc5c4CCN3C[C@@H]2CC[C@@H]1O", "note": "[yohimbine]", "values": [{"measurement": "Estimated kg/wk reduction", "setting": "[3]; third treatment phase", "result": 0.1, "unit": "kg/wk"}, {"measurement": "Estimated ΔWt. LossMAX", "setting": "[3]; third treatment phase", "result": 1.5, "unit": "kg"}, {"measurement": "affinity for the α1-receptor", "setting": "[8]", "result": "moderate affinity"}, {"measurement": "affinity for the α2-adrenergic receptor", "setting": "[9]", "result": "high affinity"}, {"measurement": "Kg./wk", "setting": "[6]; Dosage 20 mg/day", "result": "0-0.16 Kg./wk"}, {"measurement": "ΔWt. LossMAX", "setting": "[6]; Dosage 20 mg/day", "result": "0 to 1.5", "unit": "kg"}]}]}
